“And” between values parts separate entries of the source, which are not always exact repeats. Equal entries are not always repeated. Non-standard residues stand in square brackets, D forms with d. Residues, ends and D or L forms follow the SMILES beside them. Nva = CCC[C@H](N)C(=O)O
Legend:
Format in all cases: in vivo, mouse
[1] = system: liver protein expression of CCl4 induced liver fibrosis mice; assay: CCl4 mice: liver western blot
Procedure: Male mice liver fibrosis was induced by intraperitoneal injection of 20% CCl4 (Sigma, USA) diluted in corn oil (Aladdin, China) every 3 days for 6 weeks (n = 6; 5 ml kg^−1 body weight). Mice injected with equivalent volume of corn oil serves as control group (n = 6). Liver fibrosis mice treated with JT003 for 3 weeks were used to evaluated the pharmacological effects (n = 6; 500 μg kg^−1; daily intraperitoneal injection).
Total protein was isolated from cells or liver samples using RIPA lysis buffer (50.0 mM Tris-HCl (pH = 8.0), 150.0 mM NaCl, 0.02% NaN3, 0.1% SDS, 1% NP-40, 0.5% deoxysodium cholate, 1 mM EDTA, […]). The protein concentration was quantified with BCA kit (Pierce, ThermoFisher Scientific, USA). Thirty micrograms protein were separated by 10 or 12% sodium dodecyl sulfate-polyacrylamide gel electrophoresis depending on the band of target protein, then transferred onto equilibrated polyvinylidene difluoride membrane (PVDF, Immobilon®-PSQ transfer membranes, Merck Millipore, Germany). Membranes were incubated with primary antibodies overnight at 4 °C. Specific antibodies were listed in Supplementary Table 3. After incubation with the secondary antibody, proteins were detected by enhanced chemiluminescence (Glarity^TM Western ECL Substrate, Bio-Rad, USA) and the signals were recorded and quantified with Tanon-Image Software (Shanghai, China). Reference antibody GAPDH were used for data normalization.

[2] = system: liver gene expression of HFD induced NASH mice; assay: HFD mice: liver mRNA, quantitative RT-PCR; conditions: for CD14 liver mRNA, relative expression, Supplementary Figure 11b / F4/80 liver mRNA, relative expression, Supplementary Figure 11b / IL-1b liver mRNA, relative expression, Supplementary Figure 11b / IL-6 liver mRNA, relative expression, Supplementary Figure 11b / LY6G liver mRNA, relative expression, Supplementary Figure 11b / iNOS liver mRNA, relative expression, Supplementary Figure 11b: HFD + JT003 mice
Procedure: The NASH model was conducted with feeding a HFD for 16 weeks combine with a MCD diet (Methionine/Choline Deficient Diet, Medicience, China) in the last 4 weeks. Mice administered a MCS diet (Methionine/Choline Sufficient Diet, Medicience, China) serves as control group. NAFLD or NASH mice treated with JT003 for 4 weeks were used to evaluate the pharmacological effects (n = 6; 500 μg kg^−1; daily intraperitoneal injection). Food and water were provided ad libitum. The body weight of mice was examined every 3 days. The diet was renewed every 7 days. JT003 was diluted in PBS.
Liver total RNA was extracted by using Trizol reagent following the manufacture’s instruction (TransGen Biotech, China). The concentration of RNA was measured by Nanodrop 2000 (ThermoFisher Scientific, USA). cDNA was transcribed from 10ug total RNA with First Strand cDNA synthesis Super Mix (TransGen Biotech, China). The cDNA was diluted 1/50 and 1.0 uL were used as a template for qPCR. qPCR was performed with SYBR Green qPCR Super Mix (TransGen Biotech, China) in the Light Cycler 480 Real-Time PCR System (Roche, Swiss). Reference gene β-actin was used for data normalization. mRNA expression was analyzed with specific primers listed in Supplementary Table 2.

HFD induced NASH mice = assay: HFD induced NASH (NAFLD) mice: weight gain, liver appearance; conditions: JT003 500 μg kg−1 i.p. daily 4 weeks, vs HFD, in words
Procedure: Male C57BL/6J mice of 6–8 weeks of age (20–24 g) were used in these experiments including the NAFLD model and liver fibrosis model. The mice were purchased from Guangdong Medical Laboratory Animal Center and housed in standard isolator cages and maintained on a room temperature of 25 °C and a 12 h:12 h light/dark cycle. At the end of the experiments, mice were fasted 8 h prior to sacrifice. Liver tissue and/or epididymal adipose tissue were flash frozen in liquid nitrogen (with or without RNAlater (TransGen Biotech, China)) and stored at −80 °C for future use, or fixed in 10% paraformaldehyde for histological assays. Blood samples were obtained from the posterior venous plexus of the eyes of anesthetized mice, Blood was separated by centrifugation at 1000g for 15 min Serum was then stored at −80 °C. The ethical approval has been obtained from Animal Care and Use Committee of the Sun Yat-sen University. All animals were maintained in pathogen-free conditions and cared for in accordance with policies and certification of the Association for Assessment and Accreditation of Laboratory Animal Care International (AAALAC International).
The NASH model was conducted with feeding a HFD for 16 weeks combine with a MCD diet (Methionine/Choline Deficient Diet, Medicience, China) in the last 4 weeks. […]

[3] = Figure 7e, liver western blot, CCl4 + JT003 group, single replicates, n = 4
[4] = Figure 7f, liver western blot, CCl4 + JT003 group, single replicates, n = 4
[5] = HFD mice, liver, JT003 500 μg kg−1, in words

CCC[C@H](NC(=O)[C@@H]1CCCN1)C(=O)N[C@@H](CC(C)C)C(=O)N[C@@H](Cc1ccc(O)cc1)C(=O)N[C@@H](Cc1ccc(O)cc1)C(=O)N[C@@H](Cc1ccccc1)C(=O)N[C@@H](C)C(N)=O [JT003] (H-P[Nva]LYYFA-NH2)
NFκB (western blotting) ([1]; CCl4 fibrosis mice, liver, JT003 500 μg kg−1, in words): significantly downregulated | phosphorylation levels of JNK, eIF2α and PERK ([1]; CCl4 induced fibrosis mice, liver, JT003 500 μg kg−1, in words): decreased phosphorylation levels | αSMA and COL1α1 (western blot, liver) ([1]; CCl4 mice, JT003 500 μg kg−1, in words): significant downregulation | pJNK/JNK [1, 3]: 0.7206 and 0.4902 and 0.6285 and 0.438 | pPERK/PERK [1, 3]: 0.5616 and 0.9445 and 0.6641 and 0.5949 | peIF2a/eIF2a [1, 3]: 1.116 and 0.4247 and 0.9192 and 0.3729 | CYP2E1/GAPDH [1, 4]: 1.469 and 1.0581 and 1.298 and 1.11 | PGC1a/GAPDH [1, 4]: 2.2635 and 2.209 and 2.565 and 2.497 | anti-PP65 / anti-P65 western blot quantification ([1]; Figure 6d, liver, CCl4 + JT003 group, single replicates, n = 4): 0.3517 and 0.3717 and 0.2194 and 0.5295 | CD14 liver mRNA, relative expression, Supplementary Figure 11b ([2]; replicate 1): 0.836 | F4/80 liver mRNA, relative expression, Supplementary Figure 11b ([2]; replicate 1): 1.324 | IL-1b liver mRNA, relative expression, Supplementary Figure 11b ([2]; replicate 1): 0.2358 | IL-6 liver mRNA, relative expression, Supplementary Figure 11b ([2]; replicate 1): 0.3838 | LY6G liver mRNA, relative expression, Supplementary Figure 11b ([2]; replicate 1): 1.539 | iNOS liver mRNA, relative expression, Supplementary Figure 11b ([2]; replicate 1): 0.7587 | CD14 liver mRNA, relative expression, Supplementary Figure 11b ([2]; replicate 2): 0.7038 | F4/80 liver mRNA, relative expression, Supplementary Figure 11b ([2]; replicate 2): 1.41 | IL-1b liver mRNA, relative expression, Supplementary Figure 11b ([2]; replicate 2): 0.3558 | IL-6 liver mRNA, relative expression, Supplementary Figure 11b ([2]; replicate 2): 0.9338 | LY6G liver mRNA, relative expression, Supplementary Figure 11b ([2]; replicate 2): 2.089 | iNOS liver mRNA, relative expression, Supplementary Figure 11b ([2]; replicate 2): 1.076 | CD14 liver mRNA, relative expression, Supplementary Figure 11b ([2]; replicate 3): 0.548 | F4/80 liver mRNA, relative expression, Supplementary Figure 11b ([2]; replicate 3): 0.6014 | IL-1b liver mRNA, relative expression, Supplementary Figure 11b ([2]; replicate 3): 0.1532 | IL-6 liver mRNA, relative expression, Supplementary Figure 11b ([2]; replicate 3): 0.2832 | LY6G liver mRNA, relative expression, Supplementary Figure 11b ([2]; replicate 3): 0.8264 | iNOS liver mRNA, relative expression, Supplementary Figure 11b ([2]; replicate 3): 1.076 | CD14 liver mRNA, relative expression, Supplementary Figure 11b ([2]; replicate 4): 0.7504 | F4/80 liver mRNA, relative expression, Supplementary Figure 11b ([2]; replicate 4): 1.0118 | IL-1b liver mRNA, relative expression, Supplementary Figure 11b ([2]; replicate 4): 0.1494 | IL-6 liver mRNA, relative expression, Supplementary Figure 11b ([2]; replicate 4): 0.2961 | LY6G liver mRNA, relative expression, Supplementary Figure 11b ([2]; replicate 4): 2.4 | iNOS liver mRNA, relative expression, Supplementary Figure 11b ([2]; replicate 4): 0.5084 | CD14 liver mRNA, relative expression, Supplementary Figure 11b ([2]; replicate 5): 0.8521 | F4/80 liver mRNA, relative expression, Supplementary Figure 11b ([2]; replicate 5): 0.7678 | IL-1b liver mRNA, relative expression, Supplementary Figure 11b ([2]; replicate 5): 0.1331 | IL-6 liver mRNA, relative expression, Supplementary Figure 11b ([2]; replicate 5): 0.3878 | iNOS liver mRNA, relative expression, Supplementary Figure 11b ([2]; replicate 5): 1.435 | F4/80 liver mRNA, relative expression, Supplementary Figure 11b ([2]; replicate 6): 1.044 | IL-6 liver mRNA, relative expression, Supplementary Figure 11b ([2]; replicate 6): 0.3111 | G6Pase expression level in liver ([2]; HFD mice, JT003 500 μg kg−1, compared to HFD mice, in words): significantly elevated | expression of antioxidant enzymes (SOD and CAT) and mitochondrial biogenesis regulators (PGC1α and PGC1β) [2, 5]: accelerated prominently | expression of genes related to fatty acid synthesis (PPARγ, ACC1, FASN, DGAT1, FAS, SCD1, ASCL3), fatty acid uptake (CD36) and cholesterol synthesis (HMGCR, SREBP-1C) [2, 5]: significantly inhibited | expression of genes responsible for fatty acid β-oxidation (LCAD, MCAD, UCP2, CPT1α) [2, 5]: much higher | overexpression of genes related to inflammation (LY6G, F4/80, IL-6, IL-1β, iNOS, CD14) and ER stress (XBP1, ATF4, CHOP, BID and GRP78) [2, 5]: suppressed significantly | upregulation of genes related to mitochondrial dysfunction (CYP2E1, BAX, NQO1, SRXN1 and GPX1) [2, 5]: suppressed remarkably | weight gain (HFD induced NASH mice): significantly reduced the weight gain
